Experimental data reported in ChEMBL document CHEMBL1151897, “Limazepines A-F, pyrrolo[1,4]benzodiazepine Antibiotics from an Indonesian Micrococcus sp” (2009).
Active and inactive are the calls of the source. No cut-off for these calls is given here.

Assays:
Candida albicans = assay: Antifungal activity against Candida albicans; type: functional, organism-based
Pseudomonas aeruginosa [1] = assay: Antibacterial activity against Pseudomonas aeruginosa at 40 ug/disk; type: functional, organism-based
Staphylococcus aureus [2] = assay: Antibacterial activity against Staphylococcus aureus at 40 ug/disk; type: functional; details: for zone of inhibition at 40 µg/disc: read-out: IZ
Bacillus subtilis = assay: Antibacterial activity against Bacillus subtilis; type: functional, organism-based
Rhizomucor miehei = assay: Antifungal activity against Mucor miehei; type: functional, organism-based
Escherichia coli [3] = assay: Antibacterial activity against Escherichia coli at 40 ug/disk; type: functional; details: for zone of inhibition at 40 µg/disc: read-out: IZ
Pseudomonas aeruginosa [4] = assay: Antibacterial activity against Pseudomonas aeruginosa at 30 ug/disk; type: functional
Staphylococcus aureus [5] = assay: Antibacterial activity against Staphylococcus aureus at 30 ug/disk; type: functional; details: for zone of inhibition at 30 µg/disc: read-out: IZ
Escherichia coli [6] = assay: Antibacterial activity against Escherichia coli at 30 ug/disk; type: functional, organism-based
Pseudomonas aeruginosa [7] = assay: Antibacterial activity against Pseudomonas aeruginosa at 1 ug/disk; type: functional; details: read-out: IZ
Staphylococcus aureus [8] = assay: Antibacterial activity against Staphylococcus aureus at 1 ug/disk; type: functional; details: read-out: IZ
Escherichia coli [9] = assay: Antibacterial activity against Escherichia coli at 1 ug/disk; type: functional; details: read-out: IZ
Staphylococcus aureus [10] = assay: Antibacterial activity against Staphylococcus aureus at 24 ug/disk; type: functional, organism-based
Escherichia coli [11] = assay: Antibacterial activity against Escherichia coli at 24 ug/disk; type: functional, organism-based
Pseudomonas aeruginosa [12] = assay: Antibacterial activity against Pseudomonas aeruginosa at 24 ug/disk; type: functional, organism-based

Compound | Activity (Candida albicans) | inhibition zone (IZ) (Pseudomonas aeruginosa [1]) | Activity (Bacillus subtilis) | Activity (Rhizomucor miehei) | inhibition zone (IZ) (Pseudomonas aeruginosa [4]) | inhibition zone (IZ) (Escherichia coli [6]) | also measured
CCC1=CN2C(=O)c3ccc(OC)c(O)c3NC(=O)[C@@H]2C1 | inactive | inactive | inactive | inactive |  |  | inhibition zone (IZ) (Staphylococcus aureus [2]): inactive; inhibition zone (IZ) (Escherichia coli [3]): inactive
CCC1=CN2C(=O)c3ccc(OC)c(O)c3N=C[C@@H]2C1 [LIMAZEPINE C] | inactive | inactive | inactive | inactive |  |  | zone of inhibition at 40 µg/disc (Staphylococcus aureus [2]): 18 mm; zone of inhibition at 40 µg/disc (Escherichia coli [3]): 10 mm
COC(=O)c1ccc(OC)c(O)c1N | inactive |  | inactive | inactive | inactive | inactive | zone of inhibition at 30 µg/disc (Staphylococcus aureus [5]): 11 mm
CC1(C)S[C@@H]2[C@H](NC(=O)[C@H](N)c3ccccc3)C(=O)N2[C@H]1C(=O)O [AMPICILLIN] | inactive |  | inactive | inactive |  |  | zone of inhibition at 1 µg/disc (Pseudomonas aeruginosa [7]): 30 mm; zone of inhibition at 1 µg/disc (Staphylococcus aureus [8]): 13 mm; zone of inhibition at 1 µg/disc (Escherichia coli [9]): 25 mm
C/C=C1\C[C@H]2C=Nc3ccccc3C(=O)N2C1 | inactive |  | inactive | inactive | inactive | inactive | inhibition zone (IZ) (Staphylococcus aureus [5]): inactive
CCc1cc2cnc3c(O)c(OC)ccc3c(=O)n2c1 [LIMAZEPINE D] | inactive |  | inactive | inactive |  | inactive | zone of inhibition at 30 µg/disc (Pseudomonas aeruginosa [4]; read-out: IZ): 9 mm; zone of inhibition at 30 µg/disc (Staphylococcus aureus [5]): 7 mm
C/C=C1\C[C@H]2C=Nc3c(ccc(OC)c3O)C(=O)N2C1 [LIMAZEPINE E] | inactive | inactive | inactive | inactive |  |  | zone of inhibition at 40 µg/disc (Staphylococcus aureus [2]): 12 mm; zone of inhibition at 40 µg/disc (Escherichia coli [3]): 10 mm
CCc1c[nH]c(C=O)c1 | inactive |  | inactive | inactive |  |  | inhibition zone (IZ) (Staphylococcus aureus [10]): inactive; inhibition zone (IZ) (Escherichia coli [11]): inactive; inhibition zone (IZ) (Pseudomonas aeruginosa [12]): inactive
C/C=C1\C[C@H]2[C@@H](O)Nc3ccccc3C(=O)N2C1 | inactive |  | inactive | inactive | inactive | inactive | inhibition zone (IZ) (Staphylococcus aureus [5]): inactive
